In patent US12108719B2, “Methods for creating doubled haploid plants” (Monsanto Technology LLC, priority 2015, dated 2024):

Test system: diploid maize plant
Experiment: Multibud induction, embryo axis method (Example 8)
Format: in vivo
Procedure: Seeds of a diploid maize plant were surface sterilized comprising immersion using standard methods of the art and then germinated in vitro in growth media. One of the resulting seedlings was dissected from its seed two days after germination (embryo axis method). The dissected axis was then subjected to a multibud induction treatment comprising transfer to fresh multibud induction media containing cytokinin in the form of 10 mg/L BAP. After seven days in the multibud bud induction media, the treated seedlings were transferred back to a hormone-free regeneration media. […] These multibuds were dissected from the mother plant and transferred to rooting media comprising IBA and IAA. After approximately one week, the multibud-derived plants were transplanted into 10 inch pots and allowed to grow in a greenhouse until it was clear that each autonomously-growing multibud-derived shoot had formed ears and tassels that nicked. Each ear was then pollinated from the tassel growing in the same pot and then all plants were allowed to grow in greenhouse conditions until seed set.

c1ccc(CNc2ncnc3nc[nH]c23)cc1 [BAP, 6-Benzylaminopurine]
multibud formation (10 mg/L BAP for seven days, observed after approximately twenty days): induced multibuds could be seen growing from the nodal regions of the stem | seed borne by ears of multibud-derived plants (10 mg/L BAP multibud induction, self-pollinated multibud-derived plants): dozens of seed each
